# Source: PubChem BioAssay AID1963972 (Molecular Pharmacology Branch, DTP, NCI, 2024)
# System: 945468-187-T-J2-PDC spheroids viability
# Assay: Anticancer human tumor 945468-187-T-J2-PDC patient-derived rectal carcinoma cell line growth inhibition [PI3K]
# Conditions: spheroids with HUVEC and MSC; for IC50: curve of first compound; for viability, T/C: stronger effect = lower value
# Method in brief: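 Agents were dosed from a top concentration near clinical Cmax (otherwise 10 microM) in half-log decrements, alone or combined with PI3K inhibitors. The spheroids contain tumor cells plus endothelial (HUVEC) and MSC stroma; viability is measured.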
# [1] = second compound 0.0316 µM, first compound 0.0316 µM
# [2] = second compound 0.0316 µM, first compound 0.1 µM
# [3] = second compound 0.0316 µM, first compound 0.316 µM
# [4] = second compound 0.0316 µM, first compound 1 µM
# [5] = second compound 0.1 µM, first compound 0.0316 µM
# [6] = second compound 0.1 µM, first compound 0.1 µM
# [7] = second compound 0.1 µM, first compound 0.316 µM
# [8] = second compound 0.1 µM, first compound 1 µM
# [9] = second compound 0.316 µM, first compound 0.0316 µM
# [10] = second compound 0.316 µM, first compound 0.1 µM
# [11] = second compound 0.316 µM, first compound 0.316 µM
# [12] = second compound 0.316 µM, first compound 1 µM
# [13] = second compound 1 µM, first compound 0.0316 µM
# [14] = second compound 1 µM, first compound 0.1 µM
# [15] = second compound 1 µM, first compound 0.316 µM
# [16] = second compound 1 µM, first compound 1 µM
# [17] = second compound 3.16 µM, first compound 0.0316 µM
# [18] = second compound 3.16 µM, first compound 0.1 µM
# [19] = second compound 3.16 µM, first compound 0.316 µM
# [20] = second compound 3.16 µM, first compound 1 µM
# [21] = second compound 10 µM, first compound 0.0316 µM
# [22] = second compound 10 µM, first compound 0.1 µM
# [23] = second compound 10 µM, first compound 0.316 µM
# [24] = second compound 10 µM, first compound 1 µM
# [25] = second compound 0.0316 µM, first compound 3.16 µM
# [26] = second compound 0.0316 µM, first compound 10 µM
# [27] = second compound 0.1 µM, first compound 3.16 µM
# [28] = second compound 0.1 µM, first compound 10 µM
# [29] = second compound 0.316 µM, first compound 3.16 µM
# [30] = second compound 0.316 µM, first compound 10 µM
# [31] = second compound 1 µM, first compound 3.16 µM
# [32] = second compound 1 µM, first compound 10 µM
# [33] = second compound 3.16 µM, first compound 3.16 µM
# [34] = second compound 3.16 µM, first compound 10 µM
# [35] = second compound 10 µM, first compound 3.16 µM
# [36] = second compound 10 µM, first compound 10 µM
# 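Note: spheroids exposed to compounds for seven days before reading.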
smiles,measurement,setting,value
CCN1CCN(Cc2ccc(Nc3ncc(F)c(-c4cc(F)c5nc(C)n(C(C)C)c5c4)n3)nc2)CC1 + Cc1nc(NC(=O)N2CCCC2C(N)=O)sc1-c1ccnc(C(C)(C)C(F)(F)F)c1,IC50,second compound 0.0316 µM,> 1 µM
same,IC50,second compound 0.1 µM,> 1 µM
same,IC50,second compound 0.316 µM,> 1 µM
same,IC50,second compound 1 µM,> 1 µM
same,IC50,second compound 3.16 µM,0.753 µM
same,IC50,second compound 10 µM,0.322 µM
same,"viability, T/C","second compound 0.0316 µM, first compound 0.00316 µM",84.8%
same,"viability, T/C","second compound 0.0316 µM, first compound 0.01 µM",103%
same,"viability, T/C",[1],123%
same,"viability, T/C",[2],91.5%
same,"viability, T/C",[3],107%
same,"viability, T/C",[4],105%
same,"viability, T/C","second compound 0.1 µM, first compound 0.00316 µM",124%
same,"viability, T/C","second compound 0.1 µM, first compound 0.01 µM",104%
same,"viability, T/C",[5],131%
same,"viability, T/C",[6],88.9%
same,"viability, T/C",[7],103%
same,"viability, T/C",[8],76.2%
same,"viability, T/C","second compound 0.316 µM, first compound 0.00316 µM",103%
same,"viability, T/C","second compound 0.316 µM, first compound 0.01 µM",91.8%
same,"viability, T/C",[9],123%
same,"viability, T/C",[10],104%
same,"viability, T/C",[11],118%
same,"viability, T/C",[12],73.6%
same,"viability, T/C","second compound 1 µM, first compound 0.00316 µM",118%
same,"viability, T/C","second compound 1 µM, first compound 0.01 µM",108%
same,"viability, T/C",[13],115%
same,"viability, T/C",[14],108%
same,"viability, T/C",[15],96.8%
same,"viability, T/C",[16],58.9%
same,"viability, T/C","second compound 3.16 µM, first compound 0.00316 µM",119%
same,"viability, T/C","second compound 3.16 µM, first compound 0.01 µM",92.9%
same,"viability, T/C",[17],111%
same,"viability, T/C",[18],93.5%
same,"viability, T/C",[19],84.2%
same,"viability, T/C",[20],38.7%
same,"viability, T/C","second compound 10 µM, first compound 0.00316 µM",81.5%
same,"viability, T/C","second compound 10 µM, first compound 0.01 µM",84.4%
same,"viability, T/C",[21],94%
same,"viability, T/C",[22],66.7%
same,"viability, T/C",[23],52.8%
same,"viability, T/C",[24],28.1%
Cn1ncc(Cl)c1-c1cc(C(=O)NC(CN)Cc2cccc(F)c2)sc1Cl (stereo unspecified) + Cc1nc(NC(=O)N2CCCC2C(N)=O)sc1-c1ccnc(C(C)(C)C(F)(F)F)c1,IC50,second compound 0.0316 µM,> 10 µM
same,IC50,second compound 0.1 µM,> 10 µM
same,IC50,second compound 0.316 µM,> 10 µM
same,IC50,second compound 1 µM,> 10 µM
same,IC50,second compound 3.16 µM,> 10 µM
same,IC50,second compound 10 µM,> 10 µM
same,"viability, T/C",[1],94%
same,"viability, T/C",[2],123%
same,"viability, T/C",[3],104%
same,"viability, T/C",[4],77.9%
same,"viability, T/C",[25],89.8%
same,"viability, T/C",[26],71.6%
same,"viability, T/C",[5],116%
same,"viability, T/C",[6],134%
same,"viability, T/C",[7],104%
same,"viability, T/C",[8],101%
same,"viability, T/C",[27],72.3%
same,"viability, T/C",[28],65.9%
same,"viability, T/C",[9],102%
same,"viability, T/C",[10],104%
same,"viability, T/C",[11],124%
same,"viability, T/C",[12],92.1%
same,"viability, T/C",[29],72.3%
same,"viability, T/C",[30],70.9%
same,"viability, T/C",[13],97.4%
same,"viability, T/C",[14],92.7%
same,"viability, T/C",[15],97.4%
same,"viability, T/C",[16],88.4%
same,"viability, T/C",[31],77.9%
same,"viability, T/C",[32],54.9%
same,"viability, T/C",[17],86.7%
same,"viability, T/C",[18],87.7%
same,"viability, T/C",[19],88%
same,"viability, T/C",[20],75.1%
same,"viability, T/C",[33],72.5%
same,"viability, T/C",[34],60%
same,"viability, T/C",[21],85.9%
same,"viability, T/C",[22],79.8%
same,"viability, T/C",[23],92.5%
same,"viability, T/C",[24],89%
same,"viability, T/C",[35],59.5%
same,"viability, T/C",[36],56.6%
Cn1nccc1Nc1nccc(-c2ccn(C(CO)c3ccc(Cl)c(F)c3)c(=O)c2)n1 (stereo unspecified) + Cc1nc(NC(=O)N2CCCC2C(N)=O)sc1-c1ccnc(C(C)(C)C(F)(F)F)c1,IC50,second compound 0.0316 µM,> 10 µM
same,IC50,second compound 0.1 µM,> 10 µM
same,IC50,second compound 0.316 µM,> 10 µM
same,IC50,second compound 1 µM,> 10 µM
same,IC50,second compound 3.16 µM,> 10 µM
same,IC50,second compound 10 µM,> 10 µM
same,"viability, T/C",[1],107%
same,"viability, T/C",[2],116%
same,"viability, T/C",[3],88.5%
same,"viability, T/C",[4],79.3%
same,"viability, T/C",[25],103%
same,"viability, T/C",[26],72.8%
same,"viability, T/C",[5],112%
same,"viability, T/C",[6],110%
same,"viability, T/C",[7],108%
same,"viability, T/C",[8],105%
same,"viability, T/C",[27],87.4%
same,"viability, T/C",[28],82.1%
same,"viability, T/C",[9],129%
same,"viability, T/C",[10],107%
same,"viability, T/C",[11],98.1%
same,"viability, T/C",[12],89.2%
same,"viability, T/C",[29],105%
same,"viability, T/C",[30],80.7%
same,"viability, T/C",[13],118%
same,"viability, T/C",[14],108%
same,"viability, T/C",[15],104%
same,"viability, T/C",[16],119%
same,"viability, T/C",[31],85.2%
same,"viability, T/C",[32],74.8%
same,"viability, T/C",[17],85.9%
same,"viability, T/C",[18],119%
same,"viability, T/C",[19],85.6%
same,"viability, T/C",[20],82.8%
same,"viability, T/C",[33],79.7%
same,"viability, T/C",[34],88.5%
same,"viability, T/C",[21],76.8%
same,"viability, T/C",[22],98.3%
same,"viability, T/C",[23],71.1%
same,"viability, T/C",[24],86.9%
same,"viability, T/C",[35],88%
same,"viability, T/C",[36],72.4%
